Publication PMC5307958 (Scientific Reports, 2017)
“Also recorded” adds a separate entry of the source. Where a SMILES comes first, the peptide text is derived from it. Bridges are numbered along the chain shown (N, C = ends).

Assays:
[1] = Blood-brain barrier crossing inferred from functional activity in the IC; format: in vivo, mouse; conditions: inferred from suppression of sound evoked activity after topical (dura) or systemic (0.3 mg/kg I.P.) administration
Description: (§1) The temperature was maintained near 25 °C.

[2] = test system: auditory nerve and generators caudal to the IC; assay: Auditory brainstem responses (ABR); format: in vivo, mouse
Description: as §1
ABR recordings were acquired after the mice were anesthetized with ketamine (120 mg/kg) and xylazine (10 mg/kg) I.P., and respiration was monitored throughout to determine when additional supplemental doses were needed. Body temperature was kept constant at 37 °C using a feedback controlled heating pad (Physitemp TCAT2-LV Controller, Clifton, NJ). Stimuli and recordings were generated digitally and controlled using a TDT RZ6 Multi-I/O Processor and their BioSig/SigGen software. Acoustic signals were played through a multi-field (MF1) magnetic speaker (TDT, Alachua, FL) with a total harmonic distortion < = 1% from 1 kHz to 50 kHz, centered 0° azimuth in regards to the animal at a distance of 10 cm from the ear pinna. Tone bursts were presented at frequencies of 6, 12, 16, 20, 24, and 36 kHz (3 ms duration, 1 ms rise/fall time, alternating polarity) at a rate of 29 per second, attenuated in 5 dB steps from 80 dB SPL to 15 dB below threshold or 5 dB SPL, whichever was lower. Threshold was determined by visual inspection as the lowest intensity level which produced a defined wave in both replicates. All signals were calibrated using a Larsen Davis preamplifier, model 2221, with a 1/4″ microphone and a Larson Davis CAL200 Precision Acoustic Calibrator (PCB Piezotronics, Inc., Depew, NY). ABR recordings were acquired using a TDT RA4LI low-impedance digital headstage and RA4PA Medusa preamp with the active (noninverting) electrode inserted at the vertex, the reference (inverting) electrode below the left ear, and the ground electrode below the right ear. The responses were amplified (20×), filtered (300 Hz–3 kHz), and averaged using BioSig software and the System III hardware (TDT) data-acquisition system. A total of 256 tone burst signal and 150 GIN signal recordings were replicated for each acquisition, and muscle artifacts exceeding 7 μV were rejected from the averaged response. All recordings took place in a soundproof booth lined with echo-attenuating acoustic foam. ABR waveforms were analyzed using a custom MatLab program that automatically determined peak latencies and amplitudes in combination with secondary verification by an experimenter blind to the treatment group.

[3] = test system: mAcetylcholine M3; assay: Competition radioligand binding (NIMH PDSP); conditions: radioligand QNB, measured 4 times
[4] = test system: mouse inferior colliculus (auditory midbrain); assay: Sound evoked activity within excitatory receptive field (eRF), topical application on dura
[5] = test system: mAcetylcholine M1; assay: Competition radioligand binding (NIMH PDSP); conditions: radioligand QNB, measured 4 times
[6] = target: T1, human BKα channel (ZERO isoform) expressed in HEK293 cells (Homo sapiens, UniProt Q12791); assay: Patch-clamp recording, inside-out patches, intracellular application; format: cell-based; conditions: 50 nM LS3 applied to intracellular (internal) side; n.s., N = 6
T1 construct: expressed in transfected cells; host or cells: HEK293 (ATCC), transient transfection with Lipofectamine 2000; EGFP cotransfected as a separate marker

[7] = test system: slo-1(+) worm BK channel gene expressed in slo-1(null) worms; assay: C. elegans crawl speed, slo-1(+) rescue on slo-1 null background; format: in vivo, Caenorhabditis elegans; conditions: 750 μM LS3, 30 min; transgenic slo-1(+) on slo-1(null) background; vs. slo-1(null): p < 0.001, N = 78–162
Description: (§2) Worms were cultivated at 20 °C as described with OP50 bacteria. Worms cultured on plates contaminated with fungi or other bacteria were excluded from this study. The reference wild-type strain was N2 Bristol. The reference slo-1(null) strain and background for transgenic strains was NM1968, harboring the previously characterized null allele, js379[29]. Multi-site gateway technology (Invitrogen) was used to construct plasmids. […] of the native slo-1 promoter (Pslo-1) and the traditional unc-54 UTR were used in combination with slo-1a(cDNA)::mCherry for a rescue construct. To test rescue with the human BK channel, an hslo(ZERO isoform, cDNA)::mCherry version was constructed. The slo-1(+) and hslo(+) plasmids were injected at a concentration of 20 and 10 ng/μl, respectively. The co-injection reporter PCFJ90 (1.25 ng/μl) was used to ensure proper transformation of the arrays. As such, JPS345 carried vxEx345, an extrachromosomal array containing [Pslo-1::slo-1::mCherry::unc-54UTR,Pmyo-2::mCherry::unc-54UTR]. JPS340 carried […], an extrachromosomal array containing [Pslo-1::hslo::mCherry::unc-54UTR,Pmyo-2::mCherry::unc-54UTR].
Age-matched day one adults were cleaned of bacteria by letting them crawl around on an unseeded plate and then moved into a puddle of NGM or peptide dissolved in NGM on another unseeded plate. […]

[8] = test system: slo-1 null worms (NM1968, js379); assay: C. elegans crawl speed, slo-1 null; format: in vivo, Caenorhabditis elegans; conditions: for effect on crawl speed (LS3 reduced crawl speed for wild type but not slo-1(null)): 30 min
Description: as §2
Age-matched day one adults were cleaned of bacteria by letting them crawl around on an unseeded plate and then moved into a puddle of NGM or peptide dissolved in NGM on another unseeded plate. NGM and peptide treatment groups were always run in tandem to control for behavioral variance. While much shorter than typical drug applications in C. elegans, brief application in liquid was chosen to avoid potential catabolic by-products of incubation on metabolically active E. coli. Higher LS3 concentrations were used to compensate. The puddle was refreshed 1–2 times as needed, but let to fully absorb into the agar by 30 minutes. After 30 minutes, crawl behavior was videoed (Flea2 camera, Point Grey Research, Canada; StreamPix 3, NorPix, Canada). Copper rings restricted movement to a proscribed area. The worms were tracked offline using custom macros (Image-Pro, MediaCybernetics, Rockville, MD) for 1 minute to obtain crawl speed (cm/min). Group means ± SEM for peptide-treated vs. vehicle-treated controls were compared at each concentration with Student’s t-tests. Rescue analysis was completed with two-way ANOVA (SigmaPlot, San Jose, CA). Crawl speeds for the peptide treated groups were also normalized to the performance of yoked controls. Normalized group means±SEM were compared vs. slo-1 null performance by two-way ANOVA.

T1 sequence (Q12791 1-1178 isoform Q12791-5): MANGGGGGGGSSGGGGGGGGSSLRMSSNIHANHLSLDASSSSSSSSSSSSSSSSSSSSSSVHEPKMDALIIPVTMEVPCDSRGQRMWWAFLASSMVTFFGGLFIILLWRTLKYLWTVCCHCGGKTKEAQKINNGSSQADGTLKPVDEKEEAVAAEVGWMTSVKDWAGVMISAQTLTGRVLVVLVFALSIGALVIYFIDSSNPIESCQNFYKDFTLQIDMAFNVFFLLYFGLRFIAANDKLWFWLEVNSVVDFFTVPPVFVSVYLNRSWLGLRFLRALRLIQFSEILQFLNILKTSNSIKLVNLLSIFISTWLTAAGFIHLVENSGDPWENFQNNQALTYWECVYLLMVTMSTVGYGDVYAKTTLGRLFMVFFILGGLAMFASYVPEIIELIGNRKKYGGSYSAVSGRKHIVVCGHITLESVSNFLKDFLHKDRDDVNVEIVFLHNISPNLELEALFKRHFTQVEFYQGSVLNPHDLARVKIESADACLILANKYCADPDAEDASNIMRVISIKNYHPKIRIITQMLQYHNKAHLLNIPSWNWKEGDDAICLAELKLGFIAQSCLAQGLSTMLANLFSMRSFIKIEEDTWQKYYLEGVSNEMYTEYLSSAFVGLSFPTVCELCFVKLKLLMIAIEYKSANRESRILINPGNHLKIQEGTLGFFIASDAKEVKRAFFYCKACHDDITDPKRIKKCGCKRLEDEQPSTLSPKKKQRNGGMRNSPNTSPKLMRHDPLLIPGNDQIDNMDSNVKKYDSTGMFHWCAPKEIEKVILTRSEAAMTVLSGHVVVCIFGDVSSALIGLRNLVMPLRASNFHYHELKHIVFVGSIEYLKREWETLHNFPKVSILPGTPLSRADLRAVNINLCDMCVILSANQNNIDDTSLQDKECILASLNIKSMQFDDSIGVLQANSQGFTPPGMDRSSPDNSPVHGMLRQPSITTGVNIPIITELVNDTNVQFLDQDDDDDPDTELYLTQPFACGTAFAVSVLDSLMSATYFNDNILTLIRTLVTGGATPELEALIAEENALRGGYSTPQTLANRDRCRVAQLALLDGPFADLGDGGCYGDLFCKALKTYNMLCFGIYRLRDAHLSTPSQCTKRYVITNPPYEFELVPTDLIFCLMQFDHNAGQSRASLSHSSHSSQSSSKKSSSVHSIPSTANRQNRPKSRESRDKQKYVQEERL

## CC(C)C[C@@H]1NC(=O)CNC(=O)[C@H](CCCNC(=N)N)NC(=O)[C@H](CCCNC(=N)N)NC(=O)[C@@H](N)CSSC[C@@H](C(=O)O)NC(=O)[C@H](C(C)C)NC(=O)[C@H](CCC(N)=O)NC(=O)[C@H](C(C)C)NC1=O [LS3] (H-CRRGLVQVC-OH; disulfide 1-9; N-terminus and C-terminus assumed)
[1]
  ability to cross the BBB: can cross the BBB; also recorded: rapidly crosses the BBB after systemic delivery; also recorded: crosses the blood-brain barrier (BBB)
[2]; 4 hours post I.P. injection vs. baseline, tone bursts
  mean ABR thresholds: No significant effect
[2]; inferred from unaltered ABRs after systemic administration
  activity at cochlear BK channels: not active at cochlear BK channels
[2]; systemic (I.P.) administration
  effect on ABRs / peripheral auditory processing: without altering peripheral auditory processing; also recorded: does not alter ABRs
[2]; systemic (I.P.) injection, 4 hrs vs. baseline, auditory nerve
  ABR peak 1 (P1) amplitude by intensity functions: unaffected; also recorded: Neither BK channel modulator reduced auditory nerve (P1)
[2]; systemic (I.P.) injection, 4 hrs vs. baseline, generators caudal to the IC (brainstem)
  ABR peak 4 (P4) amplitude by intensity functions: unaffected; also recorded: Neither BK channel modulator reduced auditory nerve (P1) or brainstem (P4) amplitudes
[3]
  % inhibition by 10 µM LS3: 11.5%
[4]; 1 μL of 10 μM LS3, 120 minutes post application, baseline 450 spikes, mean, 49 units
  mean driven activity within receptive field: ~ 225 spikes
[4]; 1 μL of 10 μM LS3, after 3 hours, 47 recording sites, N = 5 mice
  reduction of mean sound evoked activity: ~ 70%
[4]; 1 μL of 10 μM LS3, after 3 hours, baseline 430, 47 recording sites, N = 5 mice
  mean sound evoked activity: 130 spikes
[4]; 1 μL of 10 μM LS3, mean of 49 units, F(5,206) = 5.085 P = 0.0002
  time course of driven activity: continued to decline out to 4 hours
[4]; 1 μL of 10 μM stock, from baseline pre-peptide, Fig. 5A,B representative eRFs
  reduction of sound evoked driven activity within the RF: approximately 50%
[5]
  % inhibition by 10 µM LS3: 12.6%
[6]
  effect on Po (post vs. pre peptide): did not reduce Po; also recorded: Only when applied to the external side did LS3 significantly reduce Po
[7]
  LS3-induced slowing response (reduction in crawl speed): rescued
[8]; 75 µM LS3 vs. vehicle
  effect on crawl speed (LS3 reduced crawl speed for wild type but not slo-1(null)): not
[8]; 250 µM LS3 vs. vehicle
  effect on crawl speed (LS3 reduced crawl speed for wild type but not slo-1(null)): not
[8]; 750 µM LS3 vs. vehicle
  effect on crawl speed (LS3 reduced crawl speed for wild type but not slo-1(null)): not
[8]; slo-1 null, LS3 in NGM, 30 min bath, normalized to vehicle-treated controls
  effect on crawl speed: did not significantly slow
